In one experiment the test system is A2058 human melanoma. Put plainly: Cell viability assay, A2058. The format is cell-based. As for the experimental part:
CWR22Rv1 prostate cancer cells were treated with N6BAP or the control compound C5 (Ctrl) at 25 μM concentration or vehicle for 24 h. Following trypan blue exclusion, the attached viable vs. de-attached dead cells were counted. […] The bars indicate mean±SD of triplicate wells. In another assay, CWR22Rv1, LNCaP and DU145 cells were treated with N6BAP, the control compound C5 (Ctrl) or vehicle at indicated concentrations. The fraction of alive cells was determined by MTS ([…]) metabolic activity assay (CellTiter 96® AQueous Assay kit). The results are shown in FIGS. 9C, 9D and 9E, respectively.
The procedure of Example 9 was followed, substituting cells of the following solid tumor cell lines for the cells treated in Example 9: A549 human lung cancer cells, CAPAN human pancreatic cancer cells, T47D human breast cancer cells, […], A2058 human melanoma and COS-7 monkey fibroblast cell lines.

Experiment [1] has as its target T1, Stat5a (Homo sapiens, UniProt P42229).
T1 sequence (P42229 1-794): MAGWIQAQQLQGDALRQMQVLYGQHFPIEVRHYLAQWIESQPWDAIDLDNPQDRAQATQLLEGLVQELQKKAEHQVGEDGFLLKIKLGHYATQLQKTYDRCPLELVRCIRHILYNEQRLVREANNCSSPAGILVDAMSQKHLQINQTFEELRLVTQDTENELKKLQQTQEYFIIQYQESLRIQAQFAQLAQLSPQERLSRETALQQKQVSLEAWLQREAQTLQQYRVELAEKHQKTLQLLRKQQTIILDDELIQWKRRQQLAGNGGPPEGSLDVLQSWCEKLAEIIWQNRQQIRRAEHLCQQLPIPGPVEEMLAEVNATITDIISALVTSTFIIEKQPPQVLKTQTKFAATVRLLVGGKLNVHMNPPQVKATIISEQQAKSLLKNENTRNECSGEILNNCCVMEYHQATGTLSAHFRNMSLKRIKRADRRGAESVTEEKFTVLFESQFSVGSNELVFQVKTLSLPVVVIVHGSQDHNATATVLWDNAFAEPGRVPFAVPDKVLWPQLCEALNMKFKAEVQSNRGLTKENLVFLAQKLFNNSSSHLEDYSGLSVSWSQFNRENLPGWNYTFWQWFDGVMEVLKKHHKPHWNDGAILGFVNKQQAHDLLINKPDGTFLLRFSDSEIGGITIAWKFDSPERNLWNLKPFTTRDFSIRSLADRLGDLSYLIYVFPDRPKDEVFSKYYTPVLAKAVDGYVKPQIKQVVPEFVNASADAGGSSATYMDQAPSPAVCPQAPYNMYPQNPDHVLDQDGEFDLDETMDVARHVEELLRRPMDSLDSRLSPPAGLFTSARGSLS
Nature of the experiment: Stat5a translocation to the nucleus in PC3 cells (immunofluorescence). The conditions noted are these: 2 hours pretreatment, 10 nmol/L Prl 30 minutes. Format: cell-based. Set-up: expressed in transfected cells; host or cells: PC-3 (human prostate cancer cell line). As for the experimental part: PC3 cells were infected with Ade-Stat5a and Ade-PrlR at MOI 5 for each adenovirus. Cells were pretreated with N6BAP or vehicle (DMSO) for 2 hours and then stimulated with 10 nmol/L Prl for 30 minutes. Cells were fixed with 100% methanol for 15 min and subsequently permeabilized with 0.1% Triton X-100 in PBS (pH 7.4). After blocking with 2% bovine serum albumin in PBS, cells were incubated with an antibody specific for Stat5a or Stat5b at 4° C. for 2 hours. Cells were then washed with PBS and incubated with FITC-conjugated secondary antibody (Jackson ImmunoResearch) at room temperature for 1 hour. The images were taken by using an inverted fluorescence microscopy (Carl Zeiss). […] It should be noted the drug effect in this study was not due to cell apoptosis induction, as the treatment time was only 2 hours. Treatment of at least 48 hours is required for the compound to induce prostate cancer cell apoptosis.

In a further experiment the test system is cyclin D1. Nature of the experiment: Expression of Stat5 target gene cyclin D1 in CWR22Rv1 and LNCaP cells (immunoblot). Format: cell-based, human. The conditions noted are these: 48 h or 25 μM over time. As for the experimental part:
Exponentially growing CWR22Rv1 and LNCaP cells were treated with N6BAP or the control compound C5 (Ctrl) for 48 h at concentrations indicated in FIG. 6 and whole cell lysates were immunoblotted with anti-cyclinD1 mAb. Exponentially growing CWR22Rv1 and LNCaP cells were treated with N6BAP or control compound C5 (Ctrl) at 25 μM for the periods of time indicated in FIG. 6, and whole cell lysates were immunoblotted with anti-cyclinD1 mAb or anti-Bcl-X1 pAb. Cell pellets were solubilized in lysis buffer [10 mM Tris-HCl (pH 7.6), 5 mM EDTA, 50 mM sodium chloride, 30 mM sodium pyrophosphate, 50 mM sodium fluoride, 1 mM sodium orthovanadate, 1% Triton X-100, 1 mM phenylmethylsulfonyl fluoride, 5 μg/ml aprotinin, 1 μg/ml pepstatin A, and […]], rotated end-over-end at 4° C. for 60 min, and insoluble material was pelleted at 12,000×g for 30 min at 4° C. The protein concentrations of clarified cell lysates were determined by simplified Bradford method (Bio-Rad Laboratories, Hercules, Calif.). The following primary antibodies were used for Western blotting, at the following concentrations: anti-β-actin pAb (1:4,000; Sigma), anti-cyclin D1 mAb (1:1000, BD Biosciences) and Bcl-xL pAb (1:1000, Cell Signaling, Danvers, Mass.).

The target of a further experiment is T2, Stat5b (Homo sapiens, UniProt P51692).
T2 construct: expressed in transfected cells; host or cells: PC-3 (human prostate cancer cell line)
Nature of the experiment: Stat5b transcriptional activity, β-casein promoter luciferase reporter gene assay in PC-3 cells. The format is cell-based. As to conditions: 1 hour pretreatment, 10 nM hPrl for 16 hours. The protocol: (§1) Cells of the human prostate cell line PC-3 were plated into 96-well plate at the density of 2×10^5 per well. After 24 hours of plating, cells were transiently co-transfected using FuGENE6 (Roche) with 0.25 μg of each of pStat5a or pStat5b, pPrlR (prolactin receptor) plasmids, 0.5 μg of pBeta-casein-luc and 0.025 μg of pRL-TK (Renilla luciferase) plasmids as an internal control. After another 24 hours of transfection, the cells were starved in serum-free medium for 8 hours, pretreated with N^6-benzyladenosine-5′-monophosphate (“N6BAP”), or one of five control compounds (designated “C3” through “C7”) of similar molecular weight but unrelated chemical structure to N6BAP), for 1 hour, and then stimulated with 10 nM human prolactin (hPrl) in the serum-free medium for additional 16 hours. The lysates were assayed for firefly and Renilla luciferase activities using the Dual-Luciferase reporter assay system (Promega). Three independent experiments were carried out in triplicate. The firefly luciferase activity was normalized to the Renilla luciferase activity of the same sample, and the mean was calculated from the parallels. From the mean values of each independent run, the overall mean and its standard deviation (S.D.) were calculated.

The target of experiment [2] is T1, Stat5a. Put plainly: Stat5a transcriptional activity, β-casein promoter luciferase reporter gene assay in PC-3 cells. Format: cell-based. As to conditions: 1 hour pretreatment, 10 nM hPrl for 16 hours. Further details: expressed in transfected cells; host or cells: PC-3 (human prostate cancer cell line). The protocol:
as §1

“Also recorded” adds a separate entry of the source.

T2 sequence (P51692 whole entry, species assumed): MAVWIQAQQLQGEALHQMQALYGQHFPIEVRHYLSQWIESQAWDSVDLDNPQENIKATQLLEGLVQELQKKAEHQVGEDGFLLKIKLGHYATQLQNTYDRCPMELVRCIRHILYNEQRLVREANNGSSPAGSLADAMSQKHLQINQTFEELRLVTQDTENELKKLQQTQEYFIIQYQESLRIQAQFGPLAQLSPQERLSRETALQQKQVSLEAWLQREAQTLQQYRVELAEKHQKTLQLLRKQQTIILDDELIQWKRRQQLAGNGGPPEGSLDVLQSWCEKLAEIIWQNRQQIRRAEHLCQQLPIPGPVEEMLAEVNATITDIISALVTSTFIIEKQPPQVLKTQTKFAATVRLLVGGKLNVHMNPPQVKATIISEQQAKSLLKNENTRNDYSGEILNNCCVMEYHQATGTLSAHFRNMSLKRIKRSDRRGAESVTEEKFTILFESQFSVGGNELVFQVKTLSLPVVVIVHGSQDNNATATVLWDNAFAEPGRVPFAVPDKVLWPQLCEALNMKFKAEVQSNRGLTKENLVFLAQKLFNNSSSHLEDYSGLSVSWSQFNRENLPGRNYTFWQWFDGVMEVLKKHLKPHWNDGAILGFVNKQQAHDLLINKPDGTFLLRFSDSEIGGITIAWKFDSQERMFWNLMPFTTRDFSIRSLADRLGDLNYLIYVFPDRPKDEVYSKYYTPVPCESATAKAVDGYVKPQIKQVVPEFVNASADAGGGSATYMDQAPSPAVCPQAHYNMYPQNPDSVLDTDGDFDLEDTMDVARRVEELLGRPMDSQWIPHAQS

As for `O=P(O)(O)OC[C@H]1O[C@@H](n2cnc3c(NCc4ccccc4)ncnc32)[C@H](O)[C@@H]1O` [N6BAP, N^6-benzyladenosine-5′-monophosphate], the cell viability result in the experiment on A2058 human melanoma is given as “did not affect the viability”. In addition, the “translocation of Stat5a to the nucleus” value at Stat5a [1] is reported as “blocks translocation of Stat5a to the nucleus”. Also, the “expression of cyclin D1” value in the experiment on cyclin D1 was “down-regulates expression”. The “transcriptional activity of Stat5b on the β-casein gene promoter” value on Stat5b is “inhibited Stat5a and Stat5b transcriptional activity in a concentration-dependent manner; also recorded: effectively blocks the transcriptional activity”. Also, the “transcriptional activity of Stat5a on the β-casein gene promoter” value on Stat5a [2] is “inhibited Stat5a and Stat5b transcriptional activity in a concentration-dependent manner; also recorded: effectively blocks the transcriptional activity”.
